System: STAT3 transcriptional activity
Assay: STAT3 transcriptional activity inhibitory effect, luciferase reporter assay with IL-6 stimulation
Format: cell-based, human
Conditions: for STAT3 transcriptional activity inhibitory effect % inhibition, 50-70% / inhibition at 1 µM / STAT3 transcriptional activity inhibitory effect % inhibition, 70% or more: IL-6 (10 ng/mL), 24 hours, HEK293 cells with STAT3 promoter and luciferase reporter; for inhibition at 1 µM: Homo sapiens, read-out: STAT3 transcriptional activity inhibitory effect % inhibition, 50% or less; for STAT3 activity inhibitory effect (in words): compounds at 1 µM compared with BBI-608 at 3 µM
Method: For HEK293 cells, an immortalized human kidney cell line, transformed HEK293 cells, in which an STAT3 promoter and a luciferase reporter were stably expressed, were used. The HEK293 cells, in which the STAT3 promoter was stably expressed, were cultured in a cell incubator at 5% CO2 and 37°C using an MEM (10% FBS) medium, and then an inhibitory effect on STAT3 transcriptional activity was confirmed by the following method.
First, HEK293 cells, in which the STAT3 promoter was stably expressed, were inoculated into a 96-well plate (white, clear bottom culture plate) at a density of 2X 10^4 cells/well, and then cultured in an incubator at 37°C and 5% CO2 for 24 hours. Then, the compound synthesized according to the above synthesis example (1 µM) or BBI-608 (Napabucasin; comparative group 3 µM) and IL-6 (10 ng/mL) were treated together, and reacted in an incubator at 37°C and 5% CO2 for 24 hours. Afterwards, the culture medium in the 96-well plate was removed, and the cells were lysed by treatment with Passive Lysis Buffer (Promega/Cat. Number E1941). Luciferase activity was tested using the Luciferase Assay System (Promega/Cat. Number E1501), and a luminescence value was measured using a microplate reader. A well not treated with IL-6 (10 ng/mL) without test substance treatment was used as a negative control, and a well treated with IL-6 (10 ng/mL) without test substance treatment was used as a positive control. A degree of STAT3 transcriptional activity inhibitory effect by the compound of the present invention was evaluated by comparing the luminescence values from each well.

CC(=O)c1cc2c(o1)C(=O)c1ccccc1C2=O [BBI-608, Napabucasin, reference compound]
STAT3 transcriptional activity inhibitory effect % inhibition, 50-70% (comparative group at 3 uM): ○ (50-70%)

O=C1C(=O)c2cc(-c3cncc4ccccc34)ccc2-c2ccc(Br)cc21 [Compound 2, 2-bromo-7-(isoquinolin-4-yl)phenanthrene-9,10-dione]
inhibition at 1 µM (compound concentration of 1 µM): ≤ 50%

O=c1c2ccccc2oc2ccc(-c3cncc4ccccc34)cc12 [Compound 3, 2-(isoquinolin-4-yl)-9H-xanthen-9-one]
inhibition at 1 µM (compound concentration of 1 µM): ≤ 50%

O=c1c2ccccc2sc2ccc(-c3cncc4ccccc34)cc12 [Compound 4, 2-(isoquinolin-4-yl)-9H-thioxanthen-9-one]
STAT3 transcriptional activity inhibitory effect % inhibition, 50-70% (compound concentration of 1 µM): ○ (50-70%)

O=C1c2ccccc2-c2ccc(-c3cncc4nccnc34)cc21 [Compound 5, 2-(pyrido[3,4-b]pyrazin-8-yl)-9H-fluoren-9-one]
STAT3 transcriptional activity inhibitory effect % inhibition, 50-70% (compound concentration of 1 µM): ○ (50-70%)

O=C1c2ccccc2-c2ccc(-c3cncc4cccnc34)cc21 [Compound 7, 2-(1,6-naphthyridin-8-yl)-9H-fluoren-9-one]
STAT3 transcriptional activity inhibitory effect % inhibition, 70% or more (compound concentration of 1 µM): ○ (70% or more) | STAT3 activity inhibitory effect (in words): excellent STAT3 activity inhibitory effect

O=C1c2ccccc2-c2ccc(-c3nccc4ncccc34)cc21 [Compound 8, 2-(1,6-naphthyridin-5-yl)-9H-fluoren-9-one]
STAT3 transcriptional activity inhibitory effect % inhibition, 70% or more (compound concentration of 1 µM): ○ (70% or more) | STAT3 activity inhibitory effect (in words): excellent STAT3 activity inhibitory effect

O=C1c2ccccc2-c2ccc(-c3cnn4ccccc34)cc21 [Compound 9, 2-(pyrazolo[1,5-a]pyridin-3-yl)-9H-fluoren-9-one]
STAT3 transcriptional activity inhibitory effect % inhibition, 70% or more (compound concentration of 1 µM): ○ (70% or more) | STAT3 activity inhibitory effect (in words): excellent STAT3 activity inhibitory effect

O=C1c2ccccc2-c2ccc(-c3cnc4ccccn34)cc21 [Compound 10, 2-(imidazo[1,2-a]pyridin-3-yl)-9H-fluoren-9-one]
inhibition at 1 µM (compound concentration of 1 µM): ≤ 50%

c1ccc2c(-c3ccc4c(c3)sc3ccccc34)cncc2c1 [Compound 11, 4-(dibenzo[b,d]thiophen-3-yl)isoquinoline]
inhibition at 1 µM (compound concentration of 1 µM): ≤ 50%

c1ccc2c(-c3ccc4c(c3)oc3ccccc34)cncc2c1 [Compound 12, 4-(dibenzo[b,d]furan-3-yl)isoquinoline]
inhibition at 1 µM (compound concentration of 1 µM): ≤ 50%

c1ccc2c(-c3ccc4c(c3)[nH]c3ccncc34)cncc2c1 [Compound 13, 7-(isoquinolin-4-yl)-5H-pyrido[4,3-b]indole]
STAT3 transcriptional activity inhibitory effect % inhibition, 70% or more (compound concentration of 1 µM): ○ (70% or more) | STAT3 activity inhibitory effect (in words): excellent STAT3 activity inhibitory effect

O=C1c2ccccc2-c2ccc(-c3cncc4ccccc34)cc21 [Compound 14, 2-(isoquinolin-4-yl)-9H-fluoren-9-one]
STAT3 transcriptional activity inhibitory effect % inhibition, 70% or more (compound concentration of 1 µM): ○ (70% or more) | STAT3 activity inhibitory effect (in words): excellent STAT3 activity inhibitory effect

c1ccc2c(-c3ccc4c(c3)[nH]c3ccccc34)cncc2c1 [Compound 15, 2-(isoquinolin-4-yl)-9H-carbazole]
STAT3 transcriptional activity inhibitory effect % inhibition, 50-70% (compound concentration of 1 µM): ○ (50-70%)

c1ccc2c(-c3ccc4c5c([nH]c4c3)CCCC5)cncc2c1 [Compound 16, 7-(isoquinolin-4-yl)-2,3,4,9-tetrahydro-1H-carbazole]
STAT3 transcriptional activity inhibitory effect % inhibition, 50-70% (compound concentration of 1 µM): ○ (50-70%)

O=C1c2ccccc2-c2ccc(-c3cccc4ccncc34)cc21 [Compound 17, 2-(isoquinolin-8-yl)-9H-fluoren-9-one]
inhibition at 1 µM (compound concentration of 1 µM): ≤ 50%

O=C1c2ccccc2-c2ccc(-c3cccc4cnccc34)cc21 [Compound 18, 2-(isoquinolin-5-yl)-9H-fluoren-9-one]
STAT3 transcriptional activity inhibitory effect % inhibition, 50-70% (compound concentration of 1 µM): ○ (50-70%)

O=C1c2ccccc2-c2ccc(-c3cccc4nccn34)cc21 [Compound 19, 2-(imidazo[1,2-a]pyridin-5-yl)-9H-fluoren-9-one]
inhibition at 1 µM (compound concentration of 1 µM): ≤ 50%

O=C1c2ccccc2-c2ccc(-c3cccn4cnnc34)cc21 [Compound 20, 2-([1,2,4]triazolo[4,3-a]pyridin-8-yl)-9H-fluoren-9-one]
inhibition at 1 µM (compound concentration of 1 µM): ≤ 50%

c1ccc2c(-c3ccc4c5c([nH]c4c3)CCC5)cncc2c1 [Compound 21, 6-(isoquinolin-4-yl)-1,2,3,4-tetrahydrocyclopenta[b]indole]
STAT3 transcriptional activity inhibitory effect % inhibition, 70% or more (compound concentration of 1 µM): ○ (70% or more) | STAT3 activity inhibitory effect (in words): excellent STAT3 activity inhibitory effect

O=C1c2ccccc2-c2ccc(-c3nccc4ccccc34)cc21 [Compound 22, 2-(isoquinolin-1-yl)-9H-fluoren-9-one]
inhibition at 1 µM (compound concentration of 1 µM): ≤ 50%

O=C1c2ccccc2-c2ccc(-c3cccn4ccnc34)cc21 [Compound 23, 2-(imidazo[1,2-a]pyridin-8-yl)-9H-fluoren-9-one]
STAT3 transcriptional activity inhibitory effect % inhibition, 70% or more (compound concentration of 1 µM): ○ (70% or more) | STAT3 activity inhibitory effect (in words): excellent STAT3 activity inhibitory effect
